From ChEMBL document CHEMBL1132075, “Enantio- and diastereocontrolled dopamine D1, D2, D3 and D4 receptor binding of N-(3-pyrrolidinylmethyl)benzamides synthesized from aspartic acid” (Bioorg Med Chem Lett, 1999)

Tests used:
D(3) dopamine receptor = D(3) dopamine receptor (Homo sapiens, UniProt P35462); assay: Binding affinity towards human dopamine D3 receptor by [3H]spiperone displacement.
D(1A) dopamine receptor = D(1A) dopamine receptor (Bos taurus, UniProt Q95136); assay: Binding affinity towards bovine dopamine D1 receptor by [3H]-SCH- 23390 displacement.
Chain of D(1A) dopamine receptor (Q95136 whole entry): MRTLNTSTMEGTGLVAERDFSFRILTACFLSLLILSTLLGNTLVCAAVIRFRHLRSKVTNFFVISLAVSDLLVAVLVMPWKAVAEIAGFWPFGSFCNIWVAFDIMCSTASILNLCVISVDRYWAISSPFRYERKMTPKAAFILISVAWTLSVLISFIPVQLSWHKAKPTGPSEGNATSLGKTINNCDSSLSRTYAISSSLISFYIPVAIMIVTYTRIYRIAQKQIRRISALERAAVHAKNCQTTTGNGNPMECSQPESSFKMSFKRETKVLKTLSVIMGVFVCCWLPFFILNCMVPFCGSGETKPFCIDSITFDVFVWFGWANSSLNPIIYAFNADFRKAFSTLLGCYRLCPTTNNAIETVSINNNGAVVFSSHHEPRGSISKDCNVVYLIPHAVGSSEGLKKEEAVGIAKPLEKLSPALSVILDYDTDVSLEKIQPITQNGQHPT

D(4) dopamine receptor = target: T1, D(4) dopamine receptor (Homo sapiens, UniProt P21917); assay: Binding affinity towards human Dopamine receptor D4 by [3H]spiperone displacement.
T1 sequence (P21917 whole entry): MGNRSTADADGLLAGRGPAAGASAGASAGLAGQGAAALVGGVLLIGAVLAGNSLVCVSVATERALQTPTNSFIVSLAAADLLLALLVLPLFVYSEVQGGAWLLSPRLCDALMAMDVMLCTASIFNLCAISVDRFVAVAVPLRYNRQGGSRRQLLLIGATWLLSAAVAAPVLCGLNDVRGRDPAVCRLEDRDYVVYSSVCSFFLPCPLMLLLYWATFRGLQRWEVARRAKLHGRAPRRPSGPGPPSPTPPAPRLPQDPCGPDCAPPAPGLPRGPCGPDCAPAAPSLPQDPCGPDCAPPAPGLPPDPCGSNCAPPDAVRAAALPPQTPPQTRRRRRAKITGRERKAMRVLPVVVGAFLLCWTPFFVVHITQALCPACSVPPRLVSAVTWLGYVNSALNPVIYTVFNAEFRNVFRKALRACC

D(2) dopamine receptor [1] = target: T2, D(2) dopamine receptor (Homo sapiens, UniProt P14416); assay: Binding affinity towards human Dopamine receptor D2 (short) by [3H]-spiperone displacement.
T2 sequence (P14416 whole entry): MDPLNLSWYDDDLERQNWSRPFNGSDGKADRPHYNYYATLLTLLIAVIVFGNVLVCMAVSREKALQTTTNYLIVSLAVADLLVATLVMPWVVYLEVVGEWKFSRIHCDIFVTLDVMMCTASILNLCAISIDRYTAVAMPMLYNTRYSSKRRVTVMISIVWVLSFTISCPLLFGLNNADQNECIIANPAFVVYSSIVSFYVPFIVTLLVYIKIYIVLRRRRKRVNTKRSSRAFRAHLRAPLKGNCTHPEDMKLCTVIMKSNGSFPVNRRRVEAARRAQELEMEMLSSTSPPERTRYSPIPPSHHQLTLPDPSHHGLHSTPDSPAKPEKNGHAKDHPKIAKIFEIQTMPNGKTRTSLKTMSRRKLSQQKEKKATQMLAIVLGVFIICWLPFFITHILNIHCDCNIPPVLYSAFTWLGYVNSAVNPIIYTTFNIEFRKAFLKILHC

D(2) dopamine receptor [2] = target: T2, D(2) dopamine receptor; assay: Binding affinity towards human Dopamine receptor D2 (long) by [3H]-spiperone displacement.

Chain of D(3) dopamine receptor (P35462 whole entry): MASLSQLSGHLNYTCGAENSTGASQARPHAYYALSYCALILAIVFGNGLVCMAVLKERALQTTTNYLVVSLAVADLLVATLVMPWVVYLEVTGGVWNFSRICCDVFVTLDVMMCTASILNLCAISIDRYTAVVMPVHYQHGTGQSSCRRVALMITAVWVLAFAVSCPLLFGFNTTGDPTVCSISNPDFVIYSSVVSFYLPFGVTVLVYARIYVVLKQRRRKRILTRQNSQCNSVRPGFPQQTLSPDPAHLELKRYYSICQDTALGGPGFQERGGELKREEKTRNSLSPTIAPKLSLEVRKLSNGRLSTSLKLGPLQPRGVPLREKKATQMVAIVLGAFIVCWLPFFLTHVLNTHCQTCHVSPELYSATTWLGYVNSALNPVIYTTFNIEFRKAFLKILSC

CNc1cc(OC)c(C(=O)NC[C@H]2CCN(Cc3ccccc3)C2)cc1Cl
Ki (D(3) dopamine receptor): 360 nM
Ki (D(1A) dopamine receptor): 9700 nM
Ki (D(4) dopamine receptor): 23 nM
Ki (D(2) dopamine receptor [1]): 86 nM
Ki (D(2) dopamine receptor [2]): 110 nM

COc1cc(NC(C)=O)c(Cl)cc1C(=O)NC[C@H]1CCN(Cc2ccccc2)C1
Ki (D(3) dopamine receptor): 8700 nM
Ki (D(1A) dopamine receptor): 41000 nM
Ki (D(4) dopamine receptor): 340 nM
Ki (D(2) dopamine receptor [1]): 25000 nM
Ki (D(2) dopamine receptor [2]): 27000 nM

COc1cc(N)c(Cl)cc1C(=O)NC[C@@H]1CCN(Cc2ccccc2)C1
Ki (D(3) dopamine receptor): 570 nM
Ki (D(1A) dopamine receptor): 11000 nM
Ki (D(4) dopamine receptor): 180 nM
Ki (D(2) dopamine receptor [1]): 640 nM
Ki (D(2) dopamine receptor [2]): 1400 nM

CCC[C@H]1CN(Cc2ccccc2)C[C@@H]1CNC(=O)c1cc(Cl)c(NC)cc1OC
Ki (D(3) dopamine receptor): 350 nM
Ki (D(1A) dopamine receptor): 4100 nM
Ki (D(4) dopamine receptor): 990 nM
Ki (D(2) dopamine receptor [1]): 540 nM
Ki (D(2) dopamine receptor [2]): 980 nM

COc1cc(N(C)C(C)=O)c(Cl)cc1C(=O)NC[C@@H]1CCN(Cc2ccccc2)C1
Ki (D(3) dopamine receptor): 7200 nM
Ki (D(1A) dopamine receptor): 75000 nM
Ki (D(4) dopamine receptor): 4200 nM
Ki (D(2) dopamine receptor [1]): 19000 nM
Ki (D(2) dopamine receptor [2]): 30000 nM

CCC[C@@H]1CN(Cc2ccccc2)C[C@H]1CNC(=O)c1cc(Cl)c(NC)cc1OC
Ki (D(3) dopamine receptor): 270 nM
Ki (D(1A) dopamine receptor): 3300 nM
Ki (D(4) dopamine receptor): 130 nM
Ki (D(2) dopamine receptor [1]): 24 nM
Ki (D(2) dopamine receptor [2]): 54 nM

COc1cc(N)c(Cl)cc1C(=O)NC[C@H]1CCN(Cc2ccccc2)C1
Ki (D(3) dopamine receptor): 2200 nM
Ki (D(1A) dopamine receptor): 11000 nM
Ki (D(4) dopamine receptor): 140 nM
Ki (D(2) dopamine receptor [1]): 540 nM
Ki (D(2) dopamine receptor [2]): 820 nM

CCC[C@H]1CN(Cc2ccccc2)C[C@H]1CNC(=O)c1cc(Cl)c(NC)cc1OC
Ki (D(3) dopamine receptor): 310 nM
Ki (D(1A) dopamine receptor): 240 nM
Ki (D(4) dopamine receptor): 46 nM
Ki (D(2) dopamine receptor [1]): 28 nM
Ki (D(2) dopamine receptor [2]): 45 nM

CNc1cc(OC)c(C(=O)NC[C@H]2CN(Cc3ccccc3)C[C@H]2C)cc1Cl
Ki (D(3) dopamine receptor): 110 nM
Ki (D(1A) dopamine receptor): 11000 nM
Ki (D(4) dopamine receptor): 47 nM
Ki (D(2) dopamine receptor [1]): 79 nM
Ki (D(2) dopamine receptor [2]): 150 nM

CNc1cc(OC)c(C(=O)NC[C@@H]2CCN(Cc3ccccc3)C2)cc1Cl
Ki (D(3) dopamine receptor): 47 nM
Ki (D(1A) dopamine receptor): 5100 nM
Ki (D(4) dopamine receptor): 19 nM
Ki (D(2) dopamine receptor [1]): 58 nM
Ki (D(2) dopamine receptor [2]): 110 nM

COc1cc(N(C)C(C)=O)c(Cl)cc1C(=O)NC[C@H]1CCN(Cc2ccccc2)C1
Ki (D(3) dopamine receptor): 11000 nM
Ki (D(1A) dopamine receptor): 87000 nM
Ki (D(4) dopamine receptor): 7000 nM
Ki (D(2) dopamine receptor [1]): 28000 nM
Ki (D(2) dopamine receptor [2]): 38000 nM

COc1cc(NC(C)=O)c(Cl)cc1C(=O)NC[C@@H]1CCN(Cc2ccccc2)C1
Ki (D(3) dopamine receptor): 2700 nM
Ki (D(1A) dopamine receptor): 35000 nM
Ki (D(4) dopamine receptor): 250 nM
Ki (D(2) dopamine receptor [1]): 21000 nM
Ki (D(2) dopamine receptor [2]): 19000 nM

COc1ccc(Br)cc1C(=O)NC[C@@H]1CCN(Cc2ccccc2)C1
Ki (D(3) dopamine receptor): 1100 nM
Ki (D(1A) dopamine receptor): 3700 nM
Ki (D(4) dopamine receptor): 48 nM
Ki (D(2) dopamine receptor [1]): 1600 nM
Ki (D(2) dopamine receptor [2]): 3100 nM

CNc1cc(OC)c(C(=O)NC[C@@H]2CN(Cc3ccccc3)C[C@H]2C)cc1Cl
Ki (D(3) dopamine receptor): 210 nM
Ki (D(1A) dopamine receptor): 14000 nM
Ki (D(4) dopamine receptor): 220 nM
Ki (D(2) dopamine receptor [1]): 10 nM
Ki (D(2) dopamine receptor [2]): 28 nM

CNc1cc(OC)c(C(=O)NC[C@@H]2CN(Cc3ccccc3)C[C@@H]2C)cc1Cl
Ki (D(3) dopamine receptor): 570 nM
Ki (D(1A) dopamine receptor): 12000 nM
Ki (D(4) dopamine receptor): 240 nM
Ki (D(2) dopamine receptor [1]): 21 nM
Ki (D(2) dopamine receptor [2]): 51 nM

CNc1cc(OC)c(C(=O)NC[C@H]2CN(Cc3ccccc3)C[C@@H]2C)cc1Cl
Ki (D(3) dopamine receptor): 320 nM
Ki (D(1A) dopamine receptor): 20000 nM
Ki (D(4) dopamine receptor): 150 nM
Ki (D(2) dopamine receptor [1]): 120 nM
Ki (D(2) dopamine receptor [2]): 330 nM

COc1ccc(Br)cc1C(=O)NC[C@H]1CCN(Cc2ccccc2)C1
Ki (D(3) dopamine receptor): 2100 nM
Ki (D(1A) dopamine receptor): 5200 nM
Ki (D(4) dopamine receptor): 46 nM
Ki (D(2) dopamine receptor [1]): 1500 nM
Ki (D(2) dopamine receptor [2]): 2000 nM

CCC[C@@H]1CN(Cc2ccccc2)C[C@@H]1CNC(=O)c1cc(Cl)c(NC)cc1OC
Ki (D(3) dopamine receptor): 31 nM
Ki (D(1A) dopamine receptor): 2800 nM
Ki (D(4) dopamine receptor): 200 nM
Ki (D(2) dopamine receptor [1]): 190 nM
Ki (D(2) dopamine receptor [2]): 190 nM

CCN1CCC[C@H]1CNC(=O)c1cc(S(N)(=O)=O)ccc1OC [LEVOSULPIRIDE]
Ki (D(1A) dopamine receptor): 50000 nM
